Assay results published in patent US11952365B2, “Anti-viral compounds” (Aligos Therapeutics, Inc., priority 2020, dated 2024).
Like-named read-outs stand apart in the source and are kept apart here.

Tests used:
[1] = system: human beta-coronavirus OC43; assay: microbe, parasite or virus in culture; format: cell-based; details: Betacoronavirus 1, OC43, HeLa, 144 h
[2] = system: SARS-CoV-2-GHB-03021/2020; assay: microbe, parasite or virus in culture; format: cell-based; details: Severe acute respiratory syndrome coronavirus 2, Vero C1008, 96 h; read-out: VeroE6 + CP (EC50)
[3] = target: 3CLpro (Severe acute respiratory syndrome coronavirus 2, UniProt P0DTD1); assay: SARS-CoV-2 3CLpro protease assay (duplex, SAMDI-MS); format: biochemical; design: For the duplex assay, 3CLpro and HRV3C was added; details: 30 mins preincubation, class symbols
[4] = system: SARS-CoV-2-GHB-03021/2020; assay: SARS-CoV-2 Infection Model in Huh7 Cells; format: cell-based; details: Severe acute respiratory syndrome coronavirus 2, Huh-7, 96 h, SARS-CoV-2, day 4 p.i., MTS
[5] = in vitro; details: African green monkey, VeroE6 + CP (CC50), Vero E6-eGFP cells with CP-100356, absence of virus, MTS
[6] = in vitro; details: human
[7] = target: T1, human cathepsin L (Homo sapiens, UniProt P07711); assay: cathepsin L assay; format: biochemical; details: 10 pM human cathepsin L, Z-FR-AMC 2 μM, class symbols
T1 construct: purchased R&D Systems
Procedure, shortened: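 Human cathepsin L at 10 pM was preincubated 30 min with compound, then reaction started with Z-FR-AMC (2 μM final). Fluorescence (355/460 nm) read every 2 min for 30 min; IC50 from four-parameter curve fit.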

[8] = target: HRV3C (Human rhinovirus 14, UniProt P03303); assay: HRV3C protease assay (duplex, SAMDI-MS); format: biochemical, HRV; details: 30 mins preincubation
Procedure, shortened: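 Duplex format with 3CLpro; 30 min enzyme–compound preincubation, 30 min reaction with two peptide substrates, ambient temp. Stop: 0.5% formic acid, neutralized with 1% NaHCO3 (finals). Readout SAMDI-MS, product AUC over internal standard AUC; four-parameter IC50.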

[9] = Cytotoxicity plates without OC43 virus (cell-titer-glo); format: cell-based, human; details: human; HeLa cells without OC43 virus, class symbols
Procedure, shortened: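 HeLa cells seeded overnight, then treated with serially diluted compounds in 2% FBS EMEM, uninfected, in parallel with the OC43 antiviral plates. Incubated 6 days at 33 °C; viability read by CellTiter-Glo luminescence.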

[10] = 3CLpro, read-out: SARS-Cov-2 IC50
[11] = OC43 in HeLa cells, 6 days at 33° C., class symbols, read-out: EC50
[12] = HRV3C, class symbols, read-out: HRV IC50

| Compound | EC50 [1] [µM] | EC50 [2] [µM] | IC50 [3, 10] [µM] | EC50 ([4]; class symbols) [µM] | CC50 ([5]; numeric bounds) [µM] | CC50 [6] [µM] | IC50 [7] [µM] | IC50 ([8]; HRV IC50, HRV3C, class symbols) [µM] | CC50 at 6 days [9] [µM] | EC50 [1, 11] [µM] | IC50 [8, 12] [µM] | EC50 ([1]; OC43 in HeLa cells, 6 days at 33° C., bound, read-out: EC50) [µM] | EC50 ([4]; numeric bounds) [µM] | IC50 ([8]; HRV3C, bound, read-out: HRV IC50) [µM] | IC50 ([3]; SARS-Cov-2 IC50, 3CLpro) [µM] | IC50 ([8]; HRV IC50, HRV3C, bound) [µM] | CC50 ([5]; class symbols) [µM] |
| --- | --- | --- | --- | --- | --- | --- | --- | --- | --- | --- | --- | --- | --- | --- | --- | --- | --- |
| O=C1NCC[C@H]1C[C@H](NC(=O)[C@@H]1[C@H]2CCC[C@H]2CN1C(=O)c1cc2ccsc2[nH]1)C(=O)CO [Compound 80, (1S,3aR,6aS)—N-[(2S)-4-hydroxy-3-oxo-1-[(3S)-2-oxopyrrolidin-3-yl]butan-2-yl]-2-{6H-thieno[2,3-b]pyrrole-5-carbonyl}-hexahydro-1H-cyclopenta[c]pyrrole-1-carboxamide] | 1 to 10 | 1 to 10 | 0.02 to 0.2 | 1 to 10 | > 50 | > 50 | ≥ 10 | 2 to 20 | > 10 | – | – | – | – | – | – | – | – |
| COc1ccc2[nH]c(C(=O)N3C[C@@H]4CCC[C@@H]4[C@H]3C(=O)N[C@@H](C[C@@H]3CCNC3=O)C(=O)CO)cc2c1OC [Compound 81, (1S,3aR,6aS)-2-(4,5-dimethoxy-1H-indole-2-carbonyl)-N-[(2S)-4-hydroxy-3-oxo-1-[(3S)-2-oxopyrrolidin-3-yl]butan-2-yl]-hexahydro-1H-cyclopenta[c]pyrrole-1-carboxamide] | – | 1 to 10 | 0.02 to 0.2 | 10 to 100 | > 50 | > 50 | ≥ 10 | – | > 10 | 1 to 10 | 2 to 20 | – | – | – | – | – | – |
| O=C1NCC[C@H]1C[C@H](NC(=O)[C@@H]1[C@H]2CCC[C@H]2CN1C(=O)c1cc(S(=O)(=O)c2ccccc2)c[nH]1)C(=O)CO [Compound 82, (1S,3aR,6aS)-2-[4-(benzenesulfonyl)-1H-pyrrole-2-carbonyl]-N-[(2S)-4-hydroxy-3-oxo-1-[(3S)-2-oxopyrrolidin-3-yl]butan-2-yl]-hexahydro-1H-cyclopenta[c]pyrrole-1-carboxamide] | – | 10 to 100 | 0.02 to 0.2 | – | > 50 | > 50 | ≥ 10 | – | > 10 | – | 2 to 20 | > 10 | > 50 | – | – | – | – |
| O=C1NCC[C@H]1C[C@H](NC(=O)[C@@H]1[C@H]2CCC[C@H]2CN1C(=O)c1cc2c([nH]1)CCCC2)C(=O)CO [Compound 83, (1S,3aR,6aS)—N-[(2S)-4-hydroxy-3-oxo-1-[(3S)-2-oxopyrrolidin-3-yl]butan-2-yl]-2-(4,5,6,7-tetrahydro-1H-indole-2-carbonyl)-hexahydro-1H-cyclopenta[c]pyrrole-1-carboxamide] | – | < 1 | 0.02 to 0.2 | < 1 | > 50 | > 50 | ≥ 10 | – | > 10 | 0.1 to 1 | – | – | – | > 10 | – | – | – |
| O=C(c1ccccc1)c1c[nH]c(C(=O)N2C[C@@H]3CCC[C@@H]3[C@H]2C(=O)N[C@@H](C[C@@H]2CCNC2=O)C(=O)CO)c1 [Compound 84, (1S,3aR,6aS)-2-(4-benzoyl-1H-pyrrole-2-carbonyl)-N-[(2S)-4-hydroxy-3-oxo-1-[(3S)-2-oxopyrrolidin-3-yl]butan-2-yl]-hexahydro-1H-cyclopenta[c]pyrrole-1-carboxamide] | – | 1 to 10 | 0.02 to 0.2 | – | > 50 | > 50 | ≥ 10 | – | > 10 | 1 to 10 | 2 to 20 | – | > 50 | – | – | – | – |
| CCOC(=O)c1cc(C(=O)N2C[C@@H]3CCC[C@@H]3[C@H]2C(=O)N[C@@H](C[C@@H]2CCNC2=O)C(=O)CO)[nH]c1C [Compound 85, ethyl 5-[(1S,3aR,6aS)-1-{[(2S)-4-hydroxy-3-oxo-1-[(3S)-2-oxopyrrolidin-3-yl]butan-2-yl]carbamoyl}-hexahydro-1H-cyclopenta[c]pyrrole-2-carbonyl]-2-methyl-1H-pyrrole-3-carboxylate] | – | 1 to 10 | 0.02 to 0.2 | 10 to 100 | > 50 | > 50 | ≥ 10 | – | > 10 | 1 to 10 | 2 to 20 | – | – | – | – | – | – |
| CC(=O)c1c[nH]c(C(=O)N2C[C@@H]3CCC[C@@H]3[C@H]2C(=O)N[C@@H](C[C@@H]2CCNC2=O)C(=O)CO)c1 [Compound 86, (1S,3aR,6aS)-2-(4-acetyl-1H-pyrrole-2-carbonyl)-N-[(2S)-4-hydroxy-3-oxo-1-[(3S)-2-oxopyrrolidin-3-yl]butan-2-yl]-hexahydro-1H-cyclopenta[c]pyrrole-1-carboxamide] | – | 10 to 100 | 0.02 to 0.2 | 10 to 100 | > 50 | > 50 | ≥ 10 | – | > 10 | 1 to 10 | 2 to 20 | – | – | – | – | – | – |
| O=C1NCC[C@H]1C[C@H](NC(=O)[C@@H]1[C@H]2CCC[C@H]2CN1C(=O)c1cc2c(OC(F)F)cccc2[nH]1)C(=O)CO [Compound 87, (1S,3aR,6aS)-2-[4-(difluoromethoxy)-1H-indole-2-carbonyl]-N-[(2S)-4-hydroxy-3-oxo-1-[(3S)-2-oxopyrrolidin-3-yl]butan-2-yl]-hexahydro-1H-cyclopenta[c]pyrrole-1-carboxamide] | – | < 1 | < 0.02 | 1 to 10 | > 100 | > 10 | ≥ 10 | – | > 10 | < 0.1 | 2 to 20 | – | – | – | – | – | – |
| COc1cc(Cl)cc2[nH]c(C(=O)N3C[C@@H]4CCC[C@@H]4[C@H]3C(=O)N[C@@H](C[C@@H]3CCNC3=O)C(=O)CO)cc12 [Compound 88, (1S,3aR,6aS)-2-(6-chloro-4-methoxy-1H-indole-2-carbonyl)-N-[(2S)-4-hydroxy-3-oxo-1-[(3S)-2-oxopyrrolidin-3-yl]butan-2-yl]-hexahydro-1H-cyclopenta[c]pyrrole-1-carboxamide] | – | < 1 | < 0.02 | < 1 | > 100 | > 10 | ≥ 10 | – | > 10 | < 0.1 | 2 to 20 | – | – | – | – | – | – |
| COc1ccc(Cl)c2[nH]c(C(=O)N3C[C@@H]4CCC[C@@H]4[C@H]3C(=O)N[C@@H](C[C@@H]3CCNC3=O)C(=O)CO)cc12 [Compound 89, (1S,3aR,6aS)-2-(7-chloro-4-methoxy-1H-indole-2-carbonyl)-N-[(2S)-4-hydroxy-3-oxo-1-[(3S)-2-oxopyrrolidin-3-yl]butan-2-yl]-hexahydro-1H-cyclopenta[c]pyrrole-1-carboxamide] | – | < 1 | – | < 1 | > 100 | > 50 | ≥ 10 | – | > 10 | 0.1 to 1 | – | – | – | – | < 0.02 | > 10 | – |
| O=C1NCC[C@H]1C[C@H](NC(=O)[C@@H]1[C@H]2CCC[C@H]2CN1C(=O)c1cc2c(Cl)cc(F)cc2[nH]1)C(=O)CO [Compound 90, (1S,3aR,6aS)-2-(4-chloro-6-fluoro-1H-indole-2-carbonyl)-N-[(2S)-4-hydroxy-3-oxo-1-[(3S)-2-oxopyrrolidin-3-yl]butan-2-yl]-hexahydro-1H-cyclopenta[c]pyrrole-1-carboxamide] | – | < 1 | < 0.02 | < 1 | > 100 | > 50 | ≥ 10 | – | > 10 | < 0.1 | 2 to 20 | – | – | – | – | – | – |
| O=C1NCC[C@H]1C[C@H](NC(=O)[C@@H]1[C@H]2CCC[C@H]2CN1C(=O)c1cc2c(Cl)cc(Cl)cc2[nH]1)C(=O)CO [Compound 91, (1S,3aR,6aS)-2-(4,6-dichloro-1H-indole-2-carbonyl)-N-[(2S)-4-hydroxy-3-oxo-1-[(3S)-2-oxopyrrolidin-3-yl]butan-2-yl]-hexahydro-1H-cyclopenta[c]pyrrole-1-carboxamide] | – | < 1 | < 0.02 | < 1 | – | > 10 | ≥ 10 | – | > 10 | < 0.1 | 2 to 20 | – | – | – | – | – | > 10 |
